Assay results published in paper PMC8494430, “Development of a fluorogenic ADAMTS-7 substrate” (Journal of Enzyme Inhibition and Medicinal Chemistry, 2021).

Tests used:
ADAMTS-5 = target: T1, ADAMTS-5 (Homo sapiens, UniProt Q9UNA0); experiment: Cleavage of ATS7FP7 by ADAMTS-5 (kinetic constants); type: biochemical; conditions: cleavage of ATS7FP7 by ADAMTS-5 (10 nM), 37 °C; curve did not reach a proper plateau
T1 construct: made in house
T1 sequence (Q9UNA0 262-930): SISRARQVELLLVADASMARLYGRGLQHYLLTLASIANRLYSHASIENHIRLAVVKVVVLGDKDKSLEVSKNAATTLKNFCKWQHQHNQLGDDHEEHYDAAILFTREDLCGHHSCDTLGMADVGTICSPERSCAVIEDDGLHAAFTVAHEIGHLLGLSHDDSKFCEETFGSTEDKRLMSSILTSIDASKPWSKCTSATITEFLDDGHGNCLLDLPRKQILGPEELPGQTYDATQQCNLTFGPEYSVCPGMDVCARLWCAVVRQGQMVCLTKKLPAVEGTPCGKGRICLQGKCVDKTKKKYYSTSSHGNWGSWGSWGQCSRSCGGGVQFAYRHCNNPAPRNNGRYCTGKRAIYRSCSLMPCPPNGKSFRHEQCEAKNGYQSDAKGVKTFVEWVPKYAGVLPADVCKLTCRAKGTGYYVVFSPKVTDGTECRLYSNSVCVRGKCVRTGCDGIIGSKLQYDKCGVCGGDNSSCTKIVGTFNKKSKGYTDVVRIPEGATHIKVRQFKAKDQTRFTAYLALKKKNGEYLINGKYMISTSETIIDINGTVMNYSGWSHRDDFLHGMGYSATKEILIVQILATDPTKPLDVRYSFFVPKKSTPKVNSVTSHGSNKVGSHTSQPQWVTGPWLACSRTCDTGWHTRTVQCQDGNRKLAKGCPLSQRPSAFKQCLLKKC
Description: All enzyme assays were conducted in TNC-B buffer (50 mM Tris- HCl, pH 7.5, 150 mM NaCl, 10 mM CaCl2, and 0.02% NaN3) at 37 °C in 384 well plates (Cat. No: 784900, Greiner Bio-One, Austria). To avoid the formation of inhibitor or peptide aggregates, the detergent Brij-35 (0.05%) was added to TNC-B[13]. For inhibition studies, stock solutions of chemical compounds were prepared in dimethyl sulfoxide (DMSO) (10 mM). These were further diluted at different concentrations in TNC-B and incubated with ADAMTS-1, ADAMTS-4, ADAMTS-5, ADAMTS-7 or ADAMTS-8 (10 nM) for 1 h at 37 °C. Blank samples were prepared using buffer only and the rate of cleavage for blank reactions was subtracted from the rates measured in the presence of enzyme. Upon addition of the indicated ADAMTS-7 FRET substrates (40 µM), the fluorescence was measured immediately using a FLUOstar Omega microplate reader (BMG Labtech, Germany) with an excitation filter wavelength of 485 nm and an emission filter wavelength of 520 nm. […]
Supplementary Figure 6: Cleavage of ATS7FP7 by members of the ADAMTS family. […] Fluorescence was detected (λex = 485 nm, λem = 520 nm) for 8 h at 37°C and reported as relative fluorescence units (RFU). […]

ADAMTS-7 = target: T2, ADAMTS-7 (Homo sapiens, UniProt Q9UKP4); experiment: Cleavage of FRET peptides by ADAMTS-7 (kinetic constants, cleavage rate); type: biochemical; conditions: 37 °C
T2 construct: the recombinant construct ADAMTS7-T8, which lacks the C-terminal PLAC domain; made in house
T2 sequence (Q9UKP4 237-1631 limits assumed): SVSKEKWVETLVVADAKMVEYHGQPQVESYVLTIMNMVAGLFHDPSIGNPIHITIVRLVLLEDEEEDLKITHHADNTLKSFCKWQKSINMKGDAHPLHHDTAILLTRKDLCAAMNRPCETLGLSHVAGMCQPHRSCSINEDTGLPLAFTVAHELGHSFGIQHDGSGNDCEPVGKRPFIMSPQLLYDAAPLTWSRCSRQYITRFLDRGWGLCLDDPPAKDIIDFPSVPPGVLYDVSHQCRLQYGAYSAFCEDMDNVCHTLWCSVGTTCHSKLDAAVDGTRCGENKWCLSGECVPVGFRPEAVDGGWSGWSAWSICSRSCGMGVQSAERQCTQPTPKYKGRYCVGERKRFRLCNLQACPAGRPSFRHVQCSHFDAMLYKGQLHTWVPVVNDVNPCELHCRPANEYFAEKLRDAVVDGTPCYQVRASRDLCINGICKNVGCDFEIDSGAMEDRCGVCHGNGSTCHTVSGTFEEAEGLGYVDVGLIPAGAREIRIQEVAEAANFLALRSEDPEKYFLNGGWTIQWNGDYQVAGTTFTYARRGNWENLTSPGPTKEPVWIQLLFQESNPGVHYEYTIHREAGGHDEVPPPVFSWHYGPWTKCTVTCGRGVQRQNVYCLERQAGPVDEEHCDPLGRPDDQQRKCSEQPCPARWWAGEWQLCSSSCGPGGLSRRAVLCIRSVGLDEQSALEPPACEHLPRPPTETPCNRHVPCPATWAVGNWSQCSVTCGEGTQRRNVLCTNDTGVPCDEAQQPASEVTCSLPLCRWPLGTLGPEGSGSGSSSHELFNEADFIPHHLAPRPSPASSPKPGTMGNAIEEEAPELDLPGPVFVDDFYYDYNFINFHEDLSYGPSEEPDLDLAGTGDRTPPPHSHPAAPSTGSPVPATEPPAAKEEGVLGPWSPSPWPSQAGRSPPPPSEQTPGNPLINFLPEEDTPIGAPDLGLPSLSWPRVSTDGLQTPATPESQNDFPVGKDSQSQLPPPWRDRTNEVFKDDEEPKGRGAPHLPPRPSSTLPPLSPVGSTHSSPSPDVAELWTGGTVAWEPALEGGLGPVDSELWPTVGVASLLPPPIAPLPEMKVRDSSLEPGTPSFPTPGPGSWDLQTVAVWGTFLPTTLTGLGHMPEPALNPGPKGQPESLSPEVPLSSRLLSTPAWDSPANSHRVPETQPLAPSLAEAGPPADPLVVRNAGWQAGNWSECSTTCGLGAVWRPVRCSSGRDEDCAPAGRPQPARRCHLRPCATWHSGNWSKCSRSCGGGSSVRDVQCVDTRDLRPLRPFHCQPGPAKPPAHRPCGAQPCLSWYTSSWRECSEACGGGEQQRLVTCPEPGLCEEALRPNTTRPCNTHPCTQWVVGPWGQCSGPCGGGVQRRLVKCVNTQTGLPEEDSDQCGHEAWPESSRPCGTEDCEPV
Description: All enzyme assays were conducted in TNC-B buffer (50 mM Tris- HCl, pH 7.5, 150 mM NaCl, 10 mM CaCl2, and 0.02% NaN3) at 37 °C in 384 well plates (Cat. No: 784900, Greiner Bio-One, Austria). To avoid the formation of inhibitor or peptide aggregates, the detergent Brij-35 (0.05%) was added to TNC-B[13]. For inhibition studies, stock solutions of chemical compounds were prepared in dimethyl sulfoxide (DMSO) (10 mM). These were further diluted at different concentrations in TNC-B and incubated with ADAMTS-1, ADAMTS-4, ADAMTS-5, ADAMTS-7 or ADAMTS-8 (10 nM) for 1 h at 37 °C. Blank samples were prepared using buffer only and the rate of cleavage for blank reactions was subtracted from the rates measured in the presence of enzyme. Upon addition of the indicated ADAMTS-7 FRET substrates (40 µM), the fluorescence was measured immediately using a FLUOstar Omega microplate reader (BMG Labtech, Germany) with an excitation filter wavelength of 485 nm and an emission filter wavelength of 520 nm.
Relative Fluorescence Units (RFU) were converted into product concentration by dividing for the number of RFU generated upon complete digestion of 2.5 µM substrate. kcat values were determined by dividing Vmax by [E]t. Correction for inner filter effects was performed as before.

[1] = cleavage of ATS7FP7 by ADAMTS-7 (10 nM)

For “Glu-Ala-Ala-Ala-Arg↓Ala-Glu↓Ala-Ala-Ala-Lys [ATS7FP7]”, the Km (ADAMTS-5) was 81 ± 24 µM, the kcat (ADAMTS-5) was 0.225 ± 0.042 s⁻¹ and the “cleavage rate by ADAMTS-7” value (ADAMTS-7; FRET peptides 40 μM, ADAMTS-7 10 nM) was “increased compared to that of ATS7FP0”. The Km (ADAMTS-7; [1]) was 10.5 ± 1.5 µM and the kcat (ADAMTS-7; [1]) was 0.035 ± 0.0017 s⁻¹.
